Results on 62 compounds are retold here after paper PMC12040169 (PLOS Biology, 2025).

The nature of this data set: in vitro. The following applies: human, hela cells, % viability.
One may read the viability as a read-out of living cells in per cent, often relative to untreated cells. Regarding `COC(C)CN(C)Cc1c(C)[nH]c2ccc(F)cc12` (centres unmarked) [CBK282035], the viability at 28.5 h, 10 µM was 84.5%.

As for `CCCC(C(=O)NCCN(C)C1CCCCC1)n1nc(C)cc1C` (centres unmarked) [CBK282039], the viability at 28.5 h, 10 µM was 96.4%.

As to `Cc1nccn1CC(C)C(=O)NCCN(C)C1CCCCC1` (centres unmarked) [CBK282040], the viability at 28.5 h, 10 µM stood at 102%.

Regarding `CC(Cn1cc(Cl)cn1)C(=O)NCCN(C)C1CCCCC1` (centres unmarked) [CBK282041], the viability at 28.5 h, 10 µM amounted to 86.1%.

As for `COc1ccc2c(c1)CCCN2C(=O)Cn1nc(C)cc1C` [CBK282042], the viability at 28.5 h, 10 µM was 91.5%.

For the compound `COC(C)CN(C)C(=O)c1oc2cc(C)ccc2c1C` (centres unmarked) [CBK282043], the viability at 28.5 h, 10 µM is 88.1%.

Turning to `CCCc1cc(CNC(=O)C(C)n2ccnc2)on1` (centres unmarked) [CBK282046], the viability at 28.5 h, 10 µM came to 88.3%.

For `CCCc1cc(CNC(=O)c2ccnn2C(C)C)on1` [CBK282047], the viability at 28.5 h, 10 µM worked out at 97.4%.

Turning to `Cc1cc(C)n(C(C)CNC(=O)C(C)n2ccnc2)n1` (centres unmarked) [CBK282049], the viability at 28.5 h, 10 µM was determined as 109%.

`CC(Cc1cccs1)NC(=O)C(C)n1ccnc1` (centres unmarked) [CBK282050]: the viability at 28.5 h, 10 µM stood at 89.9%.

Regarding `c1ccc2oc(CN3CCC(N4CCCCC4)CC3)cc2c1` [CBK282052], the viability at 28.5 h, 10 µM worked out at 87.1%.

`CN(C)CCC1CCCCN1C(=O)[C@@H]1C[C@@H]2C=C[C@H]1C2` (some centres unmarked) [CBK282054]: the viability at 28.5 h, 10 µM is 89.2%.

Take `CN(C)CCC1CCCCN1C(=O)C1C2CCCCC21` (centres unmarked) [CBK282055]: the viability at 28.5 h, 10 µM worked out at 98.9%.

Turning to `CCN1CC(C(=O)N2CCCCC2CN(C)C)CC1=O` (centres unmarked) [CBK282056], the viability at 28.5 h, 10 µM is 108%.

For `Cc1cc(C(=O)N2CCn3cnnc3C2)c(C2CC2)o1` [CBK282059], the viability at 28.5 h, 10 µM came out at 115%.

With `CC(C)(CN1CCCCC1)NC(=O)CCOc1cccc(F)c1` [CBK282060], the viability at 28.5 h, 10 µM turned out to be 87.2%.

Consider `CN(C)CC1CCCN(C(=O)[C@@H]2C[C@@H]3C=C[C@H]2C3)C1` (some centres unmarked) [CBK282063], for which the viability at 28.5 h, 10 µM amounted to 98%.

Turning to `CCN1CC(C(=O)N2CCCC(CN(C)C)C2)CC1=O` (centres unmarked) [CBK282064], the viability at 28.5 h, 10 µM stood at 106%.

Consider `O=C(C1C2CCCCC21)N1CCC(Oc2ccc(F)cc2)CC1` (centres unmarked) [CBK282065], for which the viability at 28.5 h, 10 µM is 92.1%.

Regarding `CCn1c(C)nc2cc(C(=O)NC3CCCOC3)ccc21` (centres unmarked) [CBK282066], the viability at 28.5 h, 10 µM came out at 92.5%.

In the case of `Cc1nc(C)n(CCNC(=O)C(C)Cc2cccs2)n1` (centres unmarked) [CBK282067], the viability at 28.5 h, 10 µM amounted to 79.7%.

For the compound `Cc1ccn(CCNC(=O)CC2CC3CCC2C3)n1` (centres unmarked) [CBK282068], the viability at 28.5 h, 10 µM was 110%.

Consider `CC(Cc1ccccn1)NC(=O)Cn1ccnc1` (centres unmarked) [CBK282069], for which the viability at 28.5 h, 10 µM came out at 104%.

As for `CC(Cc1ccccn1)NC(=O)C1CC2C=CC1C21CC1` (centres unmarked) [CBK282070], the viability at 28.5 h, 10 µM is 90.7%.

As for `CCc1cc(CNC(=O)C2CC3C=CC2C32CC2)on1` (centres unmarked) [CBK282071], the viability at 28.5 h, 10 µM turned out to be 102%.

`Cc1nonc1CN(C)C(=O)C1CC2C=CC1C21CC1` (centres unmarked) [CBK282076]: the viability at 28.5 h, 10 µM was 97.2%.

For the compound `Cc1cc(C)n(C(C)CC(=O)N2CCCCC2CCN2CCCC2)n1` (centres unmarked) [CBK282078], the viability at 28.5 h, 10 µM stood at 106%.

Take `CC1c2ccsc2CCN1C(=O)c1ccnn1C(C)C` (centres unmarked) [CBK282079]: the viability at 28.5 h, 10 µM turned out to be 89.2%.

Consider `CC(Cn1cncn1)C(=O)N1CCc2sccc2C1C` (centres unmarked) [CBK282080], for which the viability at 28.5 h, 10 µM is 106%.

As for `Cc1nn(C)cc1C(C)NC(=O)c1ccc(CN(C)C)o1` (centres unmarked) [CBK282083], the viability at 28.5 h, 10 µM came out at 96.1%.

In the case of `Cc1nccn1CCN(C)C(=O)C1CC2C=CC1C21CC1` (centres unmarked) [CBK282084], the viability at 28.5 h, 10 µM came out at 91.7%.

For `CN(C)CC1CCCCN1C(=O)C1CC2C=CC1C21CC1` (centres unmarked) [CBK282085], the viability at 28.5 h, 10 µM was determined as 86.6%.

As for `CN(C)CC1CCCCN1C(=O)C1C2CCCCC21` (centres unmarked) [CBK282087], the viability at 28.5 h, 10 µM stood at 97.7%.

Turning to `COCc1ccc(C(=O)N2CCN3C(=O)CCC32C)o1` (centres unmarked) [CBK282091], the viability at 28.5 h, 10 µM is 104%.

For `Cc1cc(C(=O)N2CCN3C(=O)CCC32C)c(C2CC2)o1` (centres unmarked) [CBK282092], the viability at 28.5 h, 10 µM was 97.6%.

For the compound `Cc1nn(Cc2ccccc2)c(C)c1CC(=O)NCCn1ccnc1` [CBK282095], the viability at 28.5 h, 10 µM was determined as 107%.

As to `CCC(=O)N1CCC(c2cc(-c3cccc(F)c3)n(C)n2)CC1` [CBK282096], the viability at 28.5 h, 10 µM amounted to 107%.

For the compound `CC(=O)N1CCC(c2cc(-c3cccc(F)c3)n(C)n2)CC1` [CBK282097], the viability at 28.5 h, 10 µM was determined as 101%.

Consider `CC1(C)OC(=O)CC1C(=O)N1CCCC(COc2ccccc2F)C1` (centres unmarked) [CBK282098], for which the viability at 28.5 h, 10 µM worked out at 100%.

Regarding `CC1CCCN(CC(C)(C)NC(=O)c2ccnn2C(F)F)C1` (centres unmarked) [CBK282099], the viability at 28.5 h, 10 µM was 98.4%.

For `O=C(CCc1ccncc1)N1CCCCC1CN1CCCCCC1` (centres unmarked) [CBK282102], the viability at 28.5 h, 10 µM came to 99.6%.

As for `Cc1cnn(CC(=O)N2CCCCC2CN2CCCCCC2)c1` (centres unmarked) [CBK282103], the viability at 28.5 h, 10 µM came out at 98.9%.

For `Cc1c(C(=O)NC(C)c2ccncc2)oc2c(F)cccc12` (centres unmarked) [CBK282105], the viability at 28.5 h, 10 µM is 103%.

With `CCn1nc(C(C)C)cc1C(=O)NCCN1CCC(C)CC1` [CBK282107], the viability at 28.5 h, 10 µM is 85.6%.

Consider `c1ccc(CN2C[C@H]3CCc4c[nH]nc4[C@H]3C2)nc1` [CBK282108], for which the viability at 28.5 h, 10 µM was 87%.

For the compound `O=C(c1ccncc1)N1C[C@H]2CCc3c(n[nH]c3C(F)(F)F)[C@H]2C1` [CBK282110], the viability at 28.5 h, 10 µM amounted to 87.3%.

Turning to `Cc1nc(C2CCN(Cc3ccccc3)C2)c2ccccn12` (centres unmarked) [CBK282111], the viability at 28.5 h, 10 µM is 88.1%.

`Cn1ccnc1SCCNC(=O)c1cccc(Cn2cccn2)c1` [CBK282112]: the viability at 28.5 h, 10 µM amounted to 105%.

Consider `CCCC(=O)NCCn1ncc(-c2ccncc2)c1C1CC1` [CBK282116], for which the viability at 28.5 h, 10 µM came out at 83.6%.

With `O=C(C1CCCN(CC(O)c2cccs2)C1)N1CCCCCC1` (centres unmarked) [CBK282117], the viability at 28.5 h, 10 µM was 100%.

As to `CCn1c(CN(C)Cc2cc(C)[nH]n2)nc2ccccc21` [CBK282120], the viability at 28.5 h, 10 µM was 110%.

Consider `CN(C)CC1CCCN(C(=O)c2cc3cc(Cl)ccc3n2C)C1` (centres unmarked) [CBK282121], for which the viability at 28.5 h, 10 µM is 111%.

In the case of `CN(C)CC1CCCN(C(=O)c2cc3cc(F)ccc3n2C)C1` (centres unmarked) [CBK282122], the viability at 28.5 h, 10 µM is 85.6%.

As for `CCn1nc(C)c(CN(C)Cc2nc3ccccc3[nH]2)c1C` [CBK282126], the viability at 28.5 h, 10 µM was found to be 93.9%.

Take `Cc1nc2ccc(C(=O)N3CCN(C4CCCCC4)C(=O)C3)cc2[nH]1` [CBK282131]: the viability at 28.5 h, 10 µM turned out to be 86.5%.

For the compound `O=C(C1CC1)N1CCCc2cc(C(O)CN3CCCCC3)ccc21` (centres unmarked) [CBK282135], the viability at 28.5 h, 10 µM came to 99.5%.

Regarding `CC1CCCN(CC(O)c2ccc3c(c2)CCCN3C(=O)C2CC2)C1` (centres unmarked) [CBK282136], the viability at 28.5 h, 10 µM was found to be 100%.

With `Cc1nn(C(C)CC(=O)N2CCCC(CN(C)C)C2)c(C)c1Cl` (centres unmarked) [CBK282137], the viability at 28.5 h, 10 µM was determined as 107%.

In the case of `Cn1nc(C2CC2)cc1C(=O)NCCN1CCc2ccccc21` [CBK282138], the viability at 28.5 h, 10 µM was found to be 91.5%.

In the case of `CCC(=O)N1CCCc2cc(C(O)CN3CCC(C)CC3)ccc21` (centres unmarked) [CBK282144], the viability at 28.5 h, 10 µM came out at 105%.

With `CCN(CC)C(=O)CCn1c(-c2cccnc2C)cc2cccnc21` [CBK282147], the viability at 28.5 h, 10 µM was found to be 91.5%.

Turning to `CCN(CC)C(=O)CCn1c(-c2ccc(C)nc2)cc2cccnc21` [CBK282150], the viability at 28.5 h, 10 µM turned out to be 87.2%.
